Laboratory results from paper PMC4784888, “Activity Based High-Throughput Screening for Novel O-GlcNAc Transferase Substrates Using a Dynamic Peptide Microarray” (PLoS ONE, 2016).
Where no end group is shown, it is not given here.

Columns and labels:
Assay type in all cases: biochemical, human
purified m-OGT [1] = experiment: Ala scan of RBL-2_410–422 on peptide microarray; conditions: 1 mM UDP-GlcNAc, 0.2 μg/μL purified m-OGT; for OGT activity against RBL-2_410–422 Ala mutants (in words): extra CG at NH2 terminal
Procedure: (§1) One step OGT purification was performed using His60 Ni Gravity Flow Columns (Clontech) according to the manufacturer’s instructions. Briefly, the nickel column was equilibrated with a buffer containing 50 mM sodium phosphate, 300 sodium chloride, 20 mM imidazole, and pH 7.4, followed by incubation with cell lysate containing His tag OGT for 1h at 4°C. After washing several times using buffer containing 50 mM sodium phosphate, 300 sodium chloride, 40 mM imidazole, and pH 7.4, the recombinant OGT was eluted using elution buffer containing 50 mM sodium phosphate, 300 mM sodium chloride, 300 mM imidazole, and pH 7.4. The eluted fraction was concentrated through a 100,000 Da molecular weight cut off Amicon unit by centrifugation 10 min at 5000 RPM at 4°C.
(§2) Peptide O-GlcNAcylation was assessed using PamChip 4 microarray chips with a PamStation 12 instrument (Pamgene international, The Netherlands). The OGT enzyme reaction was prepared essentially as described[26] with minor modifications. Briefly, before addition of the enzyme reaction, the microarray was blocked with blocking buffer (1% BSA in TBS). After 30 cycles (2 cycles/min) blocking, the blocking buffer was aspirated and the microarray was incubated with 40 μL of the enzyme reaction containing OGT (lysate or purified), OGT reaction buffer (50 mM Tris—HCl, pH 7.5;1 mM DTT;12.5 mM MgCl2), a 1:1 pre-incubated mixture of anti-O-GlcNAc and FITC conjugated secondary antibody, and the sugar donor UDP-GlcNAc or water as a control for 480 cycles (2 cycles/min) at 30°C. The microarray was run in parallel by pumping the reaction up and down through the porous membrane at every cycle and a tiff image was obtained at every 20 cycles by a CCD camera inside the PamStation. O-GlcNAcylation of each peptide was detected by a fluorescent signal which was produced by an FITC conjugated antibody bound to the O-GlcNAc moiety on the peptide.
(§3) Image analysis was performed using BioNavigator 6 software (Pamgene international, The Netherlands). Briefly, each image was quantified by automated array grid finding and subsequent quantification of signal and local background for each individual spot. In this work, the signal median-minus-background value was used as the quantitative parameter for the O-GlcNAcylation of the peptide.
Synthesis of all the peptides was achieved by following a standard Fmoc SPPS strategy on a Symphony Multiple Peptide Synthesizer and starting from rink amide resin. The following Fmoc amino acids were used: Fmoc-Cys(Trt)-OH, Fmoc-Gly-OH, Fmoc-Lys(Boc)-OH, Fmoc-Glu(Otbu)-OH, Fmoc-Asn(Trt)-OH, Fmoc-Ser(tBu)-OH, Fmoc-Thr(tBu)-OH, Fmoc-Ala-OH, Fmoc-Pro-OH, Fmoc-Val-OH. Deprotection was performed using 20% piperidine in DMF, and coupling was performed using 1:0.9:2 amino acid/ HBTU/DIPEA in DMF. After completion of the synthesis, the protected peptidyl resins were incubated with a 10 mL mixture of TFA (trifluoroacetic acid): H2O: triisopropylsilane (TIPS): 1, 2-ethanedithiol (EDT) (9:0.5:0.25:0.25, v/v/v/v) and allowed to stir for 2 h at room temperature under a nitrogen atmosphere. The cleaving mixture was filtered and the resin was washed with TFA (2 mL) and DCM (4 mL). The residue was precipitated by treatment of precooled diethyl ether and centrifugation. Two times washing and centrifugation yielded the crude products in a pellet. The precipitated peptides were dissolved in water, frozen, and lyophilized. All products were stored at -20°C. Crude peptide analysis was carried out by LC-MS.
To further confirm this and investigate the role of this and surrounding amino acid residues in our activity based assay, we resynthesized the RBL-2 peptide present on the microarray and performed an Ala scan, thus replacing of all the possible O-GlcNAc sites (Ser and Thr) in RBL-2_420–422 (Fig 4A). To immobilize the peptides on the chip, all the peptides were prepared with an extra CG at the NH2 terminal to allow immobilization on the maleimide-based chip surface. […]

m-OGT = experiment: UDP-Glo assay of RBL-2_410–422 peptides
Procedure: as §1
In this work OGT activity was also determined using UDP-Glo™ Glycosyltransferase Assay according to the manufacturer’s instructions. This assay evaluates O-GlcNAcylation through monitoring UDP formation in glycosyltransferase reactions by luminescence. Briefly, OGT reactions were carried out in 100 μL final volume containing 0.5 mM UDP-GlcNAc, 6 μg purified/60 μg lysate enzyme, 100 μM peptide in OGT reaction buffer (50 mM Tris—HCl, pH 7.5;1 mM DTT;12.5 mM MgCl2). Reactions were incubated at room temperature for 2h. At the end of that period, each reaction was transferred in triplicate into a 96-well white microplate and was mixed with a 1:1 ratio of UDP-Glo Detection Reagent. After incubation at room temperature for 1h, the luminescence was recorded with a Mithras LB940 Multimode microplate reader using Mikro Win 2000 software (Berthold Technology, Germany).
To further confirm this and investigate the role of this and surrounding amino acid residues in our activity based assay, we resynthesized the RBL-2 peptide present on the microarray and performed an Ala scan, thus replacing of all the possible O-GlcNAc sites (Ser and Thr) in RBL-2_420–422 (Fig 4A). To immobilize the peptides on the chip, all the peptides were prepared with an extra CG at the NH2 terminal to allow immobilization on the maleimide-based chip surface. Cys 415 was replaced by an Ala to avoid cyclisation by disulfide bond formation or dual modes of immobilization (S2 Fig). […] The mutants T421A decreased the O-GlcNAcylation of RBL-2_420–422 peptide by 40% compared to the control (wild type with C415A). […] In addition, OGT activity against these peptides was further validated using the UDP-Glo assay, which measures the amount of UDP produced when GlcNAc is transferred from UDP-GlcNAc to the sugar accepting peptide. […] This might be because the UDP assay is more sensitive than the antibody-based detection.
Fig 4 S420A is a possible O-GlcNAc site in the RBL-2 protein. A, peptide mutant used for an Ala scan. For immobilization purposes, peptides were prepared with an extra CG at the N-terminus and Cys 415 was replaced by Ala. B, OGT activity against RBL-2_410–422 peptide mutants was determined using peptide microarray analysis with 0.2 μg/μL purified m-OGT and 1 mM UDP-GlcNAc. C, UDP-Glo assay was used to measure O-GlcNAcylation of RBL-2_410–422 peptide mutants as well. D, kinetic signals from the same microarray experiment of panel B are shown.
O-GlcNAcylation of wild type RBL-2-410-422 and C415A peptide was determined using both the UDP assay(A) and the microarray assay (B) with 1 mM UDP-GlcNAc and 0.2 μg/μL purified m-OGT. […] (TIF) Click here for additional data file.

purified m-OGT [2] = experiment: Inhibition of OGT activity by RBL-2_S420A 410–422 peptide on nuclear receptor interaction peptide microarray; conditions: purified m-OGT (0.2 μg/μL), UDP-GlcNAc 0.5 mM; for inhibition of OGT activity (in words): peptide 0.5 mM
Procedure: as §1, §2, §3
We then used the identified substrate sequence as a starting point towards the discovery of novel selective OGT inhibitors. […] To test it, we determined its inhibitory effect on the O-GlcNAcylation of two OGT substrates identified in our work and a known OGT inhibitor was used as a positive control.
Fig 5 The RBL-2_S420A 410–422 peptide inhibited OGT activity. The inhibitory effect of RBL-2_S420A 410–422 peptide on OGT activity was determined on the nuclear receptor interaction peptide microarray. […]

[3] = microarray, control wild type with C415A
[4] = UDP-Glo, luminescence, 0.5 mM UDP-GlcNAc, 6 μg purified enzyme, 100 μM peptide, 50 mM Tris-HCl pH 7.5, room temperature 2 h, triplicate

**Q.** “C415A: RBL-2_410–422 peptide with Cys 415 replaced by an Ala (CGKENSPAVTPVSTA-NH2; UniProt Q08999 410-422, looked up, variant C415A)” was tested. Which “C415A effect on O-GlcNAcylation, overall statement” value (purified m-OGT [1]; UDP assay and microarray) did it give?
**A.** modest effect on O-GlcNAcylation

**Q.** And the “OGT activity of C415A compared with wild type, UDP assay” value (m-OGT; UDP assay, 1 mM UDP-GlcNAc, 0.2 μg/μL purified m-OGT)?
**A.** modest increase in OGT activity

**Q.** “RBL-2_S420A 410–422: S420A mutation peptide of RBL-2 410–422 tested as OGT inhibitor (CGKENSPAVTPVATA-NH2)” was tested. Which “inhibition of O-GlcNAcylation of NCOA6” value (purified m-OGT [2]; 500 μM S420A peptide, NCOA6_1479–1501 substrate) did it give?
**A.** 50%

**Q.** And the “inhibition of O-GlcNAcylation of WIPI 1” value (purified m-OGT [2]; 500 μM S420A peptide, WIPI 1 substrate)?
**A.** 50%

**Q.** What about the “inhibition of OGT activity (in words)” value (purified m-OGT [2]) of the same substance?
**A.** still binds to the OGT active site and therefore inhibited OGT activity

**Q.** What about the “inhibition of OGT activity (in words)” value (purified m-OGT [2]; listed as RBL-2_S420A 420–422) of the same substance?
**A.** significant inhibition of OGT activity

**Q.** Which “OGT activity against RBL-2_410–422 Ala mutants (in words)” value (purified m-OGT [1]; [3]) does the source give for S413A: Ala scan mutant of RBL-2_410–422 here?
**A.** did not show any effect

**Q.** And the “O-GlcNAcylation activity in solution (in words)” value (m-OGT; [4])?
**A.** consistent with the microarray results

**Q.** Which results are given for “S420A: Ala scan mutant of RBL-2_410–422 (CGKENSPAVTPVATA-NH2)”?
**A.** OGT activity against RBL-2_410–422 Ala mutants (in words) (purified m-OGT [1]; [3]): complete loss of OGT activity; O-GlcNAcylation activity in solution (in words) (m-OGT; [4]): consistent with the microarray results

**Q.** Which “OGT activity against RBL-2_410–422 Ala mutants (in words)” value (purified m-OGT [1]; [3]) does the source give for “T417A: Ala scan mutant of RBL-2_410–422 (CGKENSPAVAPVSTA-NH2)” here?
**A.** complete loss of OGT activity

**Q.** And the “remaining O-GlcNAcylation” value (m-OGT; [4])?
**A.** 20%

**Q.** “T421A: Ala scan mutant of RBL-2_410–422 (CGKENSPAVTPVSAA-NH2)” was tested. Which “decrease of O-GlcNAcylation compared to control” value (purified m-OGT [1]; [3]) did it give?
**A.** 40%

**Q.** And the “O-GlcNAcylation activity in solution (in words)” value (m-OGT; [4])?
**A.** consistent with the microarray results
